Assay results as given in patent publication US8785399B2, “Antibacterial peptides” (Spiderbiotech S.R.A., priority 2008, dated 2014).
Values after ≈ are worked out from the molar mass of the structure shown. Positions of bridges follow the written chain, without caps; N, C: chain ends. Non-standard residues stand in square brackets, D forms with d. Residues, ends and D or L forms follow the SMILES beside them. Chains are numbered I, II in the order given. Aoc = NCCCCCCCC(=O)O; Ava = NCCCCC(=O)O; βAla = NCCC(=O)O

Key:
[1] = system: Pseudomonas aeruginosa ATCC 27853; assay: MIC by broth microdilution, P. aeruginosa reference strain; type: cell-based; settings: ATCC 27853
Experimental: (§1) Determination of MIC. MICs were determined in MHB by the broth microdilution methodology, according to CLSI procedure (formerly NCCLS, Ref. 11) by using final bacterial inocula of 1-5×10^5 CFU/mL. Assays were performed in sterile 96-well microtiter plates with round bottom wells (Corning Costar). Plates were incubated at 37° C. and read after 20-24 h. MIC was defined as the lowest drug concentration causing complete suppression of visible bacterial growth. All compounds were dissolved in (5% v/v DMSO).
(§2) These peptides were synthesized individually, in order to assay the activity of each sequence.

[2] = system: Klebsiella pneumoniae ATCC 10031; assay: MIC by broth microdilution, K. pneumoniae reference strain; type: cell-based; settings: ATCC 10031
Experimental: as §1, §2

E. coli ATCC 25922 = assay: MIC by broth microdilution, E. coli reference strain; type: cell-based, Escherichia coli; settings: ATCC 25922
Experimental: as §1
All natural aminoacids have been divided into three groups based on their chemical-physical properties. A total amount of 27 minilibraries, each one containing six peptide in equimolar amounts, were obtained and assayed against E. coli ATCC 25922 as reference strain. MIC (Minimum Inhibitory Concentration) is defined as the lowest concentration inhibiting 100% of visible growth.

[3] = system: Staphylococcus aureus ATCC 25923
Experimental: as §1, §2

Row | Molecule | MIC (ug/mL) P. aeruginosa [1] [µg/mL] | MIC (ug/mL) K. pneumoniae [2] [µg/mL] | MIC (ug/mL) E. coli (E. coli ATCC 25922) [µg/mL] | MIC (ug/mL) S. aureus [3] [µg/mL]
1 | CC[C@H](C)[C@H](NC(=O)[C@H](CCCCN)NC(=O)[C@H](CCCCN)NC(=O)[C@H](Cc1c[nH]c2ccccc12)NC(=O)CCCCCCCN)C(=O)N[C@@H](CCCNC(=N)N)C(=O)N[C@H](C(=O)N[C@@H](CCCNC(=N)N)C(=O)N[C@@H](CC(C)C)C(=O)N[C@@H](CO)C(=O)N[C@@H](C)C(N)=O)C(C)C [ID15, H-8-Aoa-W-KKIRVRLSA-NH2] (H-[Aoc]WKKIRVRLSA-NH2) | >64 | >64 | 32 (≈ 22.9 µM) | 
2 | CC[C@H](C)[C@H](NC(=O)[C@H](CCCCN)NC(=O)[C@H](Cc1c[nH]c2ccccc12)NC(=O)[C@H](CCC(N)=O)NC(=O)CCCCCCCN)C(=O)N[C@@H](CCCNC(=N)N)C(=O)N[C@H](C(=O)N[C@@H](CCCNC(=N)N)C(=O)N[C@@H](CC(C)C)C(=O)N[C@@H](CO)C(=O)N[C@@H](C)C(N)=O)C(C)C [ID16, H-8-Aoa-Q-W-KIRVRLSA-NH2] (H-[Aoc]QWKIRVRLSA-NH2) | >64 | >64 | 32 (≈ 22.9 µM) | 
3 | CC[C@H](C)[C@H](NC(=O)[C@H](CCCCN)NC(=O)[C@H](CCCCN)NC(=O)[C@H](CCC(N)=O)NC(=O)CCCCCCCN)C(=O)N[C@@H](CCCNC(=N)N)C(=O)N[C@H](C(=O)N[C@@H](CCCNC(=N)N)C(=O)N[C@@H](CC(C)C)C(=O)N[C@@H](CO)C(=O)N[C@@H](C)C(N)=O)C(C)C [ID17, H-8-Aoa-QKKIRVRLSA-NH2] (H-[Aoc]QKKIRVRLSA-NH2) | >64 | >64 | 64 (≈ 47.8 µM) | 
4 | CC[C@H](C)[C@H](NC(=O)[C@H](CCCCN)NC(=O)[C@H](Cc1c[nH]c2ccccc12)NC(=O)[C@H](CCC(N)=O)NC(=O)CN)C(=O)N[C@@H](CCCNC(=N)N)C(=O)N[C@H](C(=O)N[C@@H](CCCNC(=N)N)C(=O)N[C@@H](CC(C)C)C(=O)N[C@@H](CO)C(=O)N[C@@H](C)C(=O)NCCCC[C@H](NC(=O)[C@H](C)NC(=O)[C@H](CO)NC(=O)[C@H](CC(C)C)NC(=O)[C@H](CCCNC(=N)N)NC(=O)[C@@H](NC(=O)[C@H](CCCNC(=N)N)NC(=O)[C@@H](NC(=O)[C@H](CCCCN)NC(=O)[C@H](Cc1c[nH]c2ccccc12)NC(=O)[C@H](CCC(N)=O)NC(=O)CN)[C@@H](C)CC)C(C)C)C(=O)NCCC(N)=O)C(C)C [ID19, (H-G-Q-W-KIRVRLSA)2-Lys-β-Ala-NH2] (I: H-GQWKIRVRLSAK[βAla]-NH2 / II: H-GQWKIRVRLSA; amide I:12-II:C) | >64 | >64 | 16 (≈ 5.7 µM) | 
5 | CC[C@H](C)[C@H](NC(=O)[C@H](CCCCN)NC(=O)[C@H](CCCCN)NC(=O)[C@H](CCC(N)=O)NC(=O)CN)C(=O)N[C@@H](CCCNC(=N)N)C(=O)N[C@H](C(=O)N[C@@H](CCCNC(=N)N)C(=O)N[C@@H](CC(C)C)C(=O)N[C@@H](CO)C(=O)N[C@@H](C)C(=O)NCCCC[C@H](NC(=O)[C@H](C)NC(=O)[C@H](CO)NC(=O)[C@H](CC(C)C)NC(=O)[C@H](CCCNC(=N)N)NC(=O)[C@@H](NC(=O)[C@H](CCCNC(=N)N)NC(=O)[C@@H](NC(=O)[C@H](CCCCN)NC(=O)[C@H](CCCCN)NC(=O)[C@H](CCC(N)=O)NC(=O)CN)[C@@H](C)CC)C(C)C)C(=O)NCCC(N)=O)C(C)C [ID20, (H-G-QKKIRVRLSA)2-Lys-β-Ala-NH2] (I: H-GQKKIRVRLSAK[βAla]-NH2 / II: H-GQKKIRVRLSA; amide I:12-II:C) | >64 | >64 | 16 to 32 | 
6 | CC[C@H](C)[C@H](NC(=O)[C@H](CCCCN)NC(=O)[C@H](CCCCN)NC(=O)[C@H](Cc1c[nH]c2ccccc12)NC(=O)CCCCN)C(=O)N[C@@H](CCCNC(=N)N)C(=O)N[C@H](C(=O)N[C@@H](CCCNC(=N)N)C(=O)N[C@@H](CC(C)C)C(=O)N[C@@H](CO)C(=O)N[C@@H](C)C(=O)NCCCC[C@H](NC(=O)[C@H](C)NC(=O)[C@H](CO)NC(=O)[C@H](CC(C)C)NC(=O)[C@H](CCCNC(=N)N)NC(=O)[C@@H](NC(=O)[C@H](CCCNC(=N)N)NC(=O)[C@@H](NC(=O)[C@H](CCCCN)NC(=O)[C@H](CCCCN)NC(=O)[C@H](Cc1c[nH]c2ccccc12)NC(=O)CCCCN)[C@@H](C)CC)C(C)C)C(=O)NCCC(N)=O)C(C)C [ID21, (H-5-Ava-W-KKIRVRLSA)2-Lys-β-Ala-NH2] (I: H-[Ava]WKKIRVRLSAK[βAla]-NH2 / II: H-[Ava]WKKIRVRLSA; amide I:12-II:C) | 64 (≈ 22.1 µM) | 64 (≈ 22.1 µM) | 8 to 16 | 
7 | CC[C@H](C)[C@H](NC(=O)[C@H](CCCCN)NC(=O)[C@H](Cc1c[nH]c2ccccc12)NC(=O)[C@H](CCC(N)=O)NC(=O)CCCCN)C(=O)N[C@@H](CCCNC(=N)N)C(=O)N[C@H](C(=O)N[C@@H](CCCNC(=N)N)C(=O)N[C@@H](CC(C)C)C(=O)N[C@@H](CO)C(=O)N[C@@H](C)C(=O)NCCCC[C@H](NC(=O)[C@H](C)NC(=O)[C@H](CO)NC(=O)[C@H](CC(C)C)NC(=O)[C@H](CCCNC(=N)N)NC(=O)[C@@H](NC(=O)[C@H](CCCNC(=N)N)NC(=O)[C@@H](NC(=O)[C@H](CCCCN)NC(=O)[C@H](Cc1c[nH]c2ccccc12)NC(=O)[C@H](CCC(N)=O)NC(=O)CCCCN)[C@@H](C)CC)C(C)C)C(=O)NCCC(N)=O)C(C)C [ID22, (H-5-Ava-Q-W-KIRVRLSA)2-Lys-β-Ala-NH2] (I: H-[Ava]QWKIRVRLSAK[βAla]-NH2 / II: H-[Ava]QWKIRVRLSA; amide I:12-II:C) | >64 | >64 | 16 (≈ 5.53 µM) | 
8 | CC[C@H](C)[C@H](NC(=O)[C@H](CCCCN)NC(=O)[C@H](CCCCN)NC(=O)[C@H](CCC(N)=O)NC(=O)CCCCCCCN)C(=O)N[C@@H](CCCNC(=N)N)C(=O)N[C@H](C(=O)N[C@@H](CCCNC(=N)N)C(=O)N[C@@H](CC(C)C)C(=O)N[C@@H](CO)C(=O)N[C@@H](C)C(=O)NCCCC[C@H](NC(=O)[C@H](C)NC(=O)[C@H](CO)NC(=O)[C@H](CC(C)C)NC(=O)[C@H](CCCNC(=N)N)NC(=O)[C@@H](NC(=O)[C@H](CCCNC(=N)N)NC(=O)[C@@H](NC(=O)[C@H](CCCCN)NC(=O)[C@H](CCCCN)NC(=O)[C@H](CCC(N)=O)NC(=O)CCCCCCCN)[C@@H](C)CC)C(C)C)C(=O)NCCC(N)=O)C(C)C [ID23, (H-8-Aoa-OKKIRVRLSA)2-Lys-β-Ala-NH2] (I: H-[Aoc]QKKIRVRLSAK[βAla]-NH2 / II: H-[Aoc]QKKIRVRLSA; amide I:12-II:C) | >64 | >64 | 32 (≈ 11.2 µM) | 
9 | H-FKKIRVRLSA-OH [ID2, H-F-KKIRVRLSA-OH] | 256 | 512 | 256 | 512
10 | H-GQWKIRVRLSA-OH [ID14, H-G-Q-W-KIRVRLSA-OH] | 64 | >512 | 64 | >512
